Laboratory results from PubChem BioAssay (NCI).
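In this assay, cells in 96-well plates receive the compound at five concentrations for 48 hours. Endpoints are linearly interpolated between the surrounding concentrations. GI50 is the concentration that inhibits growth by half. TGI denotes the concentration required for complete inhibition of growth.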

Key:
Experiment in all cases: NCI-60 cell line screen, 48 h
OVCAR-4 ovarian = system: OVCAR-4 ovarian
NCI-H23 lung = system: NCI-H23 lung
DU-145 prostate = system: DU-145 prostate
SF-268 CNS = system: SF-268 CNS
SK-OV-3 ovarian = system: SK-OV-3 ovarian
NCI-H226 lung = system: NCI-H226 lung
RXF 393 renal = system: RXF 393 renal
MDA-MB-435 = system: MDA-MB-435
LOX IMVI melanoma = system: LOX IMVI melanoma
CCRF-CEM leukemia = system: CCRF-CEM leukemia
ACHN renal = system: ACHN renal
UACC-257 melanoma = system: UACC-257 melanoma
U251 CNS = system: U251 CNS
TK-10 renal = system: TK-10 renal
CAKI-1 renal = system: CAKI-1 renal
MCF7 breast = system: MCF7 breast
UACC-62 melanoma = system: UACC-62 melanoma
MOLT-4 leukemia = system: MOLT-4 leukemia
A498 renal = system: A498 renal
COLO 205 colon = system: COLO 205 colon
SK-MEL-28 melanoma = system: SK-MEL-28 melanoma
HCT-15 colon = system: HCT-15 colon
HL-60(TB) leukemia = system: HL-60(TB) leukemia
OVCAR-8 ovarian = system: OVCAR-8 ovarian
OVCAR-5 ovarian = system: OVCAR-5 ovarian
BT-549 breast = system: BT-549 breast
M14 melanoma = system: M14 melanoma
SF-539 CNS = system: SF-539 CNS
HS 578T breast = system: HS 578T breast
IGROV1 ovarian = system: IGROV1 ovarian
K-562 leukemia = system: K-562 leukemia
KM12 colon = system: KM12 colon
SW-620 colon = system: SW-620 colon
MDA-MB-231 breast = system: MDA-MB-231 breast
OVCAR-3 ovarian = system: OVCAR-3 ovarian
PC-3 prostate = system: PC-3 prostate
NCI-H522 lung = system: NCI-H522 lung
SN12C renal = system: SN12C renal
SK-MEL-5 melanoma = system: SK-MEL-5 melanoma
HCT-116 colon = system: HCT-116 colon
UO-31 renal = system: UO-31 renal
SR leukemia = system: SR leukemia
MALME-3M melanoma = system: MALME-3M melanoma
HT29 colon = system: HT29 colon
NCI/ADR-RES ovarian = system: NCI/ADR-RES ovarian
HCC-2998 colon = system: HCC-2998 colon
T-47D breast = system: T-47D breast
NCI-H460 lung = system: NCI-H460 lung
SNB-75 CNS = system: SNB-75 CNS
786-0 renal = system: 786-0 renal
SNB-19 CNS = system: SNB-19 CNS
HOP-62 NSCLC = system: HOP-62 NSCLC
HOP-92 NSCLC = system: HOP-92 NSCLC
SF-295 CNS = system: SF-295 CNS
A549 NSCLC = system: A549 NSCLC
SK-MEL-2 melanoma = system: SK-MEL-2 melanoma
EKVX NSCLC = system: EKVX NSCLC

## O=S(=O)(Nc1cccc(Cl)c1)c1ccc(-c2cnc(C3CC3)o2)cc1
OVCAR-4 ovarian
  GI50: 2.92 µM
  TGI: 16.7 µM
NCI-H23 lung
  GI50: 2.14 µM
  TGI: 20.4 µM
DU-145 prostate
  GI50: 2.68 µM
  TGI: 29.1 µM
SF-268 CNS
  GI50: 3.28 µM
  TGI: 25.2 µM
SK-OV-3 ovarian
  GI50: 5.41 µM
  TGI: 24.9 µM
NCI-H226 lung
  GI50: 1.9 µM
  TGI: 17.2 µM
RXF 393 renal
  GI50: 0.835 µM
  TGI: 10.9 µM
MDA-MB-435
  GI50: 0.379 µM
  TGI: 16.7 µM
LOX IMVI melanoma
  GI50: 0.617 µM
  TGI: 18.4 µM
CCRF-CEM leukemia
  GI50: 0.624 µM
  TGI: > 100 µM
ACHN renal
  GI50: 0.925 µM
  TGI: 37 µM
UACC-257 melanoma
  GI50: 6.98 µM
  TGI: 30.2 µM
U251 CNS
  GI50: 0.768 µM
  TGI: 19.8 µM
TK-10 renal
  GI50: 5.11 µM
  TGI: 26.5 µM
CAKI-1 renal
  GI50: 0.232 µM
  TGI: 14 µM
MCF7 breast
  GI50: 0.398 µM
  TGI: 51.6 µM
UACC-62 melanoma
  GI50: 0.47 µM
  TGI: 15.3 µM
MOLT-4 leukemia
  GI50: 0.657 µM
  TGI: 60.1 µM
A498 renal
  GI50: 0.453 µM
  TGI: 9.03 µM
COLO 205 colon
  GI50: 0.639 µM
  TGI: 6.18 µM
SK-MEL-28 melanoma
  GI50: 10.2 µM
  TGI: 23 µM
HCT-15 colon
  GI50: 0.43 µM
  TGI: 20.3 µM
HL-60(TB) leukemia
  GI50: 0.388 µM
  TGI: 12.3 µM
OVCAR-8 ovarian
  GI50: 1.95 µM
  TGI: 32.9 µM
OVCAR-5 ovarian
  GI50: 2.39 µM
  TGI: 18.3 µM
BT-549 breast
  GI50: 1.25 µM
  TGI: 22.7 µM
M14 melanoma
  GI50: 0.593 µM
  TGI: 24.3 µM
SF-539 CNS
  GI50: 0.683 µM
  TGI: 11.8 µM
HS 578T breast
  GI50: 0.679 µM
  TGI: 16.6 µM
IGROV1 ovarian
  GI50: 0.662 µM
  TGI: 21.6 µM
K-562 leukemia
  GI50: 0.305 µM
  TGI: 66 µM
KM12 colon
  GI50: 0.443 µM
  TGI: 16.6 µM
SW-620 colon
  GI50: 0.409 µM
  TGI: 31.3 µM
MDA-MB-231 breast
  GI50: 2.45 µM
  TGI: 22 µM
OVCAR-3 ovarian
  GI50: 0.417 µM
  TGI: 12.3 µM
PC-3 prostate
  GI50: 0.668 µM
  TGI: 17.6 µM
NCI-H522 lung
  GI50: 0.509 µM
  TGI: 16.2 µM
SN12C renal
  GI50: 1.62 µM
  TGI: 20.9 µM
SK-MEL-5 melanoma
  GI50: 2.01 µM
  TGI: 14.4 µM
HCT-116 colon
  GI50: 0.48 µM
  TGI: 18.7 µM
UO-31 renal
  GI50: 1.68 µM
  TGI: 18.8 µM
SR leukemia
  GI50: 0.409 µM
  TGI: 32.4 µM
MALME-3M melanoma
  GI50: 10.3 µM
  TGI: 32 µM
HT29 colon
  GI50: 0.372 µM
  TGI: 12.2 µM
NCI/ADR-RES ovarian
  GI50: 0.581 µM
  TGI: 17 µM
HCC-2998 colon
  GI50: 2.87 µM
  TGI: 17.1 µM
T-47D breast
  GI50: 0.519 µM
  TGI: 22 µM
NCI-H460 lung
  GI50: 0.446 µM
  TGI: 16.7 µM
SNB-75 CNS
  GI50: 0.208 µM
  TGI: 1.96 µM
786-0 renal
  GI50: 3.9 µM
  TGI: 34.8 µM
SNB-19 CNS
  GI50: 1.31 µM
  TGI: 35.8 µM
HOP-62 NSCLC
  GI50: 0.74 µM
  TGI: 16.3 µM
HOP-92 NSCLC
  GI50: 1.74 µM
  TGI: 15.2 µM
SF-295 CNS
  GI50: 0.394 µM
  TGI: 12 µM
A549 NSCLC
  GI50: 1.35 µM
  TGI: 44 µM
SK-MEL-2 melanoma
  GI50: 0.695 µM
  TGI: 20.3 µM
EKVX NSCLC
  GI50: 2.88 µM
  TGI: 40.3 µM
